According to patent US8211929B2, “Pyrimidine derivatives as kinase modulators and method of use” (Exelixis, Inc., priority 2004, dated 2012):

Key:
[1] = target: T1, (Homo sapiens, UniProt P08069); assay: IGF1R kinase assay (LCCA), IGF 0P; assay type: biochemical; conditions: IGF1R kinase LCCA assay
T1 construct: human IGF1R kinase domain residues M954-C1367; made in house; host or cells: baculovirus expression (insect cells)
Procedure: (§1) Kinase activity and compound inhibition are investigated using one or more of the three assay formats described below. The ATP concentrations for each assay are selected to be close to the Michaelis-Menten constant (KM) for each individual kinase. Dose-response experiments are performed at 10 different inhibitor concentrations in a 384-well plate format. […] Y=Min+(Max−Min)/(1+(X/IC50)^H) Equation (2)
(§2) IGF1R kinase biochemical activity was assessed using a Luciferase-Coupled Chemiluminescent Kinase assay (LCCA) format. Kinase activity was measured as the percent ATP remaining following the kinase reaction. Remaining ATP was detected by luciferase-luciferin-coupled chemiluminescence. Specifically, the reaction was initiated by mixing test compounds, 3 μM ATP, 4 μM poly EY peptide and 4 nM IGF1R (baculovirus expressed human IGF1R kinase domain residues M954-C1367) in a 20 uL assay buffer (20 mM Tris-HCL pH7.5, 10 mM MgCl2, 0.02% Triton X-100, 1 mM DTT, 2 mM MnCl2). The mixture is incubated at ambient temperature for 2 hours after which 20 uL luciferase-luciferin mix is added and the chemiluminescent signal read using a Wallac Victor^2 reader.

IGF 3P = target: T2, IGF 3P (Homo sapiens, UniProt P08069); assay: IGF1R kinase assay (LCCA), IGF 3P; assay type: biochemical; conditions: IGF1R kinase LCCA assay
T2 construct: human IGF1R kinase domain residues M954-C1367; made in house; host or cells: baculovirus expression (insect cells)
T2 sequence (P08069 954-1367): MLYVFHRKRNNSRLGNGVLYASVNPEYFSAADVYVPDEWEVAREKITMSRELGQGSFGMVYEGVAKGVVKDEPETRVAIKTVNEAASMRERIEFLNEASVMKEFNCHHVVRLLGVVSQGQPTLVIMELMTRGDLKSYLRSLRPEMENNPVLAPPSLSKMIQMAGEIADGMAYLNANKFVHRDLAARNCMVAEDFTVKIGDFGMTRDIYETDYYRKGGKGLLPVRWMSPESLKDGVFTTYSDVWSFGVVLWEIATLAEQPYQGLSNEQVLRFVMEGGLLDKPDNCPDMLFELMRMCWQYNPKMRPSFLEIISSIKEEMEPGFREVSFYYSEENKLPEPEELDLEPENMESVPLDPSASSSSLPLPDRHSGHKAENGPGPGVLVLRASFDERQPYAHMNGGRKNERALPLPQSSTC
Procedure: as §1, §2

T1 sequence (P08069 954-1367): as above

| Compound | IC50 [1] [nM] | IC50 (IGF 3P) [nM] |
| --- | --- | --- |
| CN1CCN(C(=O)CCc2ccc(Nc3ncc(Br)c(Nc4cc(C5CC5)[nH]n4)n3)cc2)CC1 [Example 85] | 500 to 5000 | 50 to 500 |
| Cc1cc(Nc2nc(Nc3ccccc3)ncc2Br)[nH]n1 [Example 90] | 500 to 5000 | 50 to 500 |
| NS(=O)(=O)c1ccc(Nc2ncc(Br)c(Nc3cc(C4CC4)n[nH]3)n2)cc1 [Example 91] | 50 to 500 | 50 to 500 |
| CC(C)(C)OC(=O)NCc1ccc(Nc2ncc(Br)c(Nc3cc(C4CC4)[nH]n3)n2)cc1 [Example 92] | 50 to 500 | 50 to 500 |
| Cc1c(Br)cccc1Nc1ncc(Br)c(Nc2cc(C3CC3)[nH]n2)n1 [Example 95] | 50 to 500 | 50 to 500 |
| Brc1cnc(Nc2ccccc2I)nc1Nc1cc(C2CC2)n[nH]1 [Example 96] | 50 to 500 | 50 to 500 |
| CN1CCN(C(=O)CCc2cccc(Nc3ncc(Br)c(Nc4cc(C5CC5)n[nH]4)n3)c2)CC1 [Example 100] | 500 to 5000 | 50 to 500 |
| Clc1ccccc1Nc1ncc(Cl)c(Nc2cc(C3CC3)[nH]n2)n1 [Example 101] | 50 to 500 | 50 to 500 |
| Brc1cnc(Nc2ccc3c(c2)OCCO3)nc1Nc1cc(C2CC2)n[nH]1 [Example 104] | 50 to 500 | 50 to 500 |
| CCN(CC)CCCNC(=O)CCc1cccc(Nc2ncc(Br)c(Nc3cc(C4CC4)n[nH]3)n2)c1 [Example 107] | 500 to 5000 | 50 to 500 |
| CN(C)c1cc(Nc2cc(C3CC3)[nH]n2)nc(NCc2cc(-c3ccccc3)no2)n1 [Example 110] | 50 to 500 | 50 to 500 |
| Cc1cc(Nc2cc(C3CC3)n[nH]2)nc(Nc2ccc(CCC(=O)N(C)C)cc2)n1 [Example 111] | 500 to 5000 | 50 to 500 |
| Cc1cc(Nc2ccnc(Nc3ccc(N4CCOCC4)cc3)n2)no1 [Example 113] | 500 to 5000 | 50 to 500 |
| CC(C)(C)c1cc(Nc2nc(Nc3ccccc3)ncc2Br)n[nH]1 [Example 116] | 500 to 5000 | 50 to 500 |
| N#Cc1ccc(Nc2ncc(Cl)c(Nc3cc(C4CC4)[nH]n3)n2)cc1 [Example 117] | 50 to 500 | 50 to 500 |
| CC(C)CNc1ncc(Br)c(Nc2cc(C3CC3)[nH]n2)n1 [Example 118] | 500 to 5000 | 50 to 500 |
| Fc1ccc(Nc2ncc(Br)c(Nc3cc(C4CC4)n[nH]3)n2)c(Br)c1 [Example 121] | 50 to 500 | 50 to 500 |
| CN1CCN(C(=O)c2ccc(Nc3ncc(Br)c(Nc4cc(C5CC5)n[nH]4)n3)cc2)CC1 [Example 124] | 500 to 5000 | 50 to 500 |
| Cc1cc(Nc2cc(C3CC3)n[nH]2)nc(Nc2ccc(CC#N)cc2)n1 [Example 125] | 50 to 500 | 50 to 500 |
| CN1CCN(C(=O)c2cccc(Nc3ncc(Br)c(Nc4cc(C5CC5)n[nH]4)n3)c2)CC1 [Example 128] | 500 to 5000 | 50 to 500 |
| c1cc(Nc2cc(C3CC3)[nH]n2)nc(NCc2cc(C3CCCCC3)no2)n1 [Example 129] | 500 to 5000 | 50 to 500 |
| Brc1cnc(Nc2cccc3ccccc23)nc1Nc1cc(C2CC2)[nH]n1 [Example 130] | 50 to 500 | 50 to 500 |

| Compound | IC50 [1] [nM] | IC50 (IGF 3P) [nM] |
| --- | --- | --- |
| CSc1ccccc1Nc1ncc(Br)c(Nc2cc(C3CC3)n[nH]2)n1 [Example 131] | 500 to 5000 | 50 to 500 |
| Brc1cnc(Nc2ccc3[nH]ccc3c2)nc1Nc1cc(C2CC2)n[nH]1 [Example 132] | 50 to 500 | 50 to 500 |
| Brc1cnc(Nc2cc(C3CC3)n[nH]2)nc1Nc1cc(C2CC2)n[nH]1 [Example 133] | 500 to 5000 | 50 to 500 |
| Cc1cc(C)cc(Nc2ncc(Br)c(Nc3cc(C4CC4)n[nH]3)n2)c1 [Example 134] | 500 to 5000 | 50 to 500 |
| Cc1ncc(CNc2ncc(Br)c(Nc3cc(C4CC4)[nH]n3)n2)s1 [Example 135] | 500 to 5000 | 50 to 500 |
| Brc1cnc(NCc2ccco2)nc1Nc1cc(C2CC2)n[nH]1 [Example 138] | 50 to 500 | 50 to 500 |
| O=S(=O)(c1ccc(Nc2ncc(Br)c(Nc3cc(C4CC4)n[nH]3)n2)cc1)N1CCOCC1 [Example 140] | 500 to 5000 | 50 to 500 |
| CC(C)(C)OC(=O)N1CC[C@H](NC(=O)c2cccc(Nc3ncc(Br)c(Nc4cc(C5CC5)n[nH]4)n3)c2)C1 [Example 141] | 500 to 5000 | 50 to 500 |
| Cc1ccc(CNc2ncc(Br)c(Nc3cc(C4CC4)n[nH]3)n2)o1 [Example 142] | 500 to 5000 | 50 to 500 |
| Clc1cc(Br)ccc1Nc1ncc(Br)c(Nc2cc(C3CC3)[nH]n2)n1 [Example 143] | 500 to 5000 | 50 to 500 |
| CC(C)(C)OC(=O)N1CC[C@@H](NC(=O)c2ccc(Nc3ncc(Br)c(Nc4cc(C5CC5)n[nH]4)n3)cc2)C1 [Example 145] | 500 to 5000 | 50 to 500 |
| COc1ccc(C)cc1Nc1ncc(Br)c(Nc2cc(C3CC3)[nH]n2)n1 [Example 147] | 500 to 5000 | 50 to 500 |
| c1cc(Nc2cc(C3CCCC3)n[nH]2)nc(Nc2ccc(N3CCOCC3)cc2)n1 [Example 151] | 500 to 5000 | 50 to 500 |
| Cc1cnc(Nc2ccc(C(=O)NC3CCN(C)CC3)cc2)nc1Nc1cc(C2CC2)n[nH]1 [Example 157] | 500 to 5000 | 500 to 5000 |
| NC(=O)c1ccc(Oc2ncc(Br)c(Nc3cc(C4CC4)n[nH]3)n2)cc1 [Example 158] | 500 to 5000 | 500 to 5000 |
| CCN(CC)CCCNc1nc(Nc2cc(C3CC3)n[nH]2)c(Cl)c(Nc2ccccc2Cl)n1 [Example 160] | > 5000 | 500 to 5000 |
| Brc1ccc(Nc2ncc(Br)c(Nc3cc(C4CC4)n[nH]3)n2)c(Br)c1 [Example 163] | 500 to 5000 | 500 to 5000 |
| CN1CCC(NC(=O)c2ccc(Nc3nccc(Nc4cc(C5CC5)n[nH]4)n3)cc2)CC1 [Example 164] | 500 to 5000 | 500 to 5000 |
| Cc1ccc(C(C)C)cc1Nc1ncc(Br)c(Nc2cc(C3CC3)n[nH]2)n1 [Example 165] | 500 to 5000 | 500 to 5000 |
| N#Cc1ccc(Nc2ncc(Br)c(Nc3cc(C4CC4)n[nH]3)n2)cc1 [Example 166] | 500 to 5000 | 500 to 5000 |
| CCN(CC)CCNC(=O)c1ccc(Nc2ncc(C)c(Nc3cc(C4CC4)n[nH]3)n2)cc1 [Example 167] | 500 to 5000 | 500 to 5000 |
| Fc1cnc(Nc2ccccc2Cl)nc1Nc1cc(C2CC2)[nH]n1 [Example 168] | 50 to 500 | 500 to 5000 |

| Compound | IC50 [1] [nM] | IC50 (IGF 3P) [nM] |
| --- | --- | --- |
| O=C(Nc1ccc(Cl)c(Nc2ncc(Br)c(Nc3cc(C4CC4)[nH]n3)n2)c1)c1ccccc1 [Example 169] | 500 to 5000 | 500 to 5000 |
| Brc1cnc(NCCc2cccs2)nc1Nc1cc(C2CC2)n[nH]1 [Example 170] | 500 to 5000 | 500 to 5000 |
| Brc1ccc(Br)c(Nc2ncc(Br)c(Nc3cc(C4CC4)n[nH]3)n2)c1 [Example 172] | 50 to 500 | 500 to 5000 |
| Cc1cc(Nc2cc(C3CC3)n[nH]2)nc(Nc2ccc3cc(C(=O)NCCN4CCCC4)sc3c2)n1 [Example 173] | 500 to 5000 | 500 to 5000 |
| Cc1cnc(Nc2ccc(N(C)C)cc2)nc1Nc1cc(C2CC2)n[nH]1 [Example 175] | 500 to 5000 | 500 to 5000 |
| Cc1cc(Nc2cc(C3CC3)[nH]n2)nc(NCc2cc(-c3ccc(Cl)cc3)no2)n1 [Example 178] | 50 to 500 | 500 to 5000 |
| Brc1cnc(NCc2nccs2)nc1Nc1cc(C2CC2)[nH]n1 [Example 179] | 500 to 5000 | 500 to 5000 |
| Brc1cnc(Nc2ccc3c(c2)CCC3)nc1Nc1cc(C2CC2)[nH]n1 [Example 180] | 500 to 5000 | 500 to 5000 |
| CCN(CC)CCCNC(=O)c1ccc(Nc2ncc(C)c(Nc3cc(C4CC4)n[nH]3)n2)cc1 [Example 181] | 500 to 5000 | 500 to 5000 |
| CCN(CC)CCCNc1cc(Nc2cc(C3CC3)n[nH]2)nc(Nc2ccccc2Cl)n1 [Example 182] | 500 to 5000 | 500 to 5000 |
| CCN(CC)CCNC(=O)c1ccc(Nc2nccc(Nc3cc(C4CC4)n[nH]3)n2)cc1 [Example 184] | 500 to 5000 | 500 to 5000 |
| CN1CCN(c2ccc(CNc3ncc(Br)c(Nc4cc(C5CC5)n[nH]4)n3)cc2)CC1 [Example 186] | 500 to 5000 | 500 to 5000 |
| COc1cc(CNc2ncc(Br)c(Nc3cc(C4CC4)[nH]n3)n2)cc(OC)c1 [Example 187] | 500 to 5000 | 500 to 5000 |
| Brc1cnc(NCc2cc(-c3ccccc3)no2)nc1Nc1cc(C2CCCC2)n[nH]1 [Example 189] | 50 to 500 | 500 to 5000 |
| Clc1ccccc1Nc1ncc(Br)c(Nc2cc[nH]n2)n1 [Example 192] | 500 to 5000 | 500 to 5000 |
| CN(C)c1ccc(CNc2ncc(Br)c(Nc3cc(C4CC4)n[nH]3)n2)cc1 [Example 193] | > 5000 | 500 to 5000 |
| CCN(CC)CCCNC(=O)c1ccc(Nc2nccc(Nc3cc(C4CC4)n[nH]3)n2)cc1 [Example 195] | 500 to 5000 | 500 to 5000 |
| N#Cc1cccc(Nc2ncc(Br)c(Nc3cc(C4CC4)n[nH]3)n2)c1 [Example 196] | 500 to 5000 | 500 to 5000 |
| Brc1cnc(NCC2CCNCC2)nc1Nc1cc(C2CC2)n[nH]1 [Example 198] | > 5000 | 500 to 5000 |
| Brc1cnc(N2CCOCC2)nc1Nc1cc(C2CC2)[nH]n1 [Example 200] | > 5000 | 500 to 5000 |
